Tests used:
[1] = Chemical stability of compound in sodium carbonate buffer at pH 10 assessed as half life by UPLC analysis; type: physicochemical
[2] = Chemical stability of compound in HCL solution at pH 1 assessed as half life by UPLC analysis; type: physicochemical
[3] = target: T1, Protein deacetylase HDAC6 (Mus musculus, UniProt Q9Z2V5); assay: Inhibition of HDAC6 in mouse LA-4 cells assessed as deacetylation of acetylated alpha-tubulin level incubated for 24 hrs by Western blot analysis; type: cell-based
T1 sequence (Q9Z2V5 whole entry): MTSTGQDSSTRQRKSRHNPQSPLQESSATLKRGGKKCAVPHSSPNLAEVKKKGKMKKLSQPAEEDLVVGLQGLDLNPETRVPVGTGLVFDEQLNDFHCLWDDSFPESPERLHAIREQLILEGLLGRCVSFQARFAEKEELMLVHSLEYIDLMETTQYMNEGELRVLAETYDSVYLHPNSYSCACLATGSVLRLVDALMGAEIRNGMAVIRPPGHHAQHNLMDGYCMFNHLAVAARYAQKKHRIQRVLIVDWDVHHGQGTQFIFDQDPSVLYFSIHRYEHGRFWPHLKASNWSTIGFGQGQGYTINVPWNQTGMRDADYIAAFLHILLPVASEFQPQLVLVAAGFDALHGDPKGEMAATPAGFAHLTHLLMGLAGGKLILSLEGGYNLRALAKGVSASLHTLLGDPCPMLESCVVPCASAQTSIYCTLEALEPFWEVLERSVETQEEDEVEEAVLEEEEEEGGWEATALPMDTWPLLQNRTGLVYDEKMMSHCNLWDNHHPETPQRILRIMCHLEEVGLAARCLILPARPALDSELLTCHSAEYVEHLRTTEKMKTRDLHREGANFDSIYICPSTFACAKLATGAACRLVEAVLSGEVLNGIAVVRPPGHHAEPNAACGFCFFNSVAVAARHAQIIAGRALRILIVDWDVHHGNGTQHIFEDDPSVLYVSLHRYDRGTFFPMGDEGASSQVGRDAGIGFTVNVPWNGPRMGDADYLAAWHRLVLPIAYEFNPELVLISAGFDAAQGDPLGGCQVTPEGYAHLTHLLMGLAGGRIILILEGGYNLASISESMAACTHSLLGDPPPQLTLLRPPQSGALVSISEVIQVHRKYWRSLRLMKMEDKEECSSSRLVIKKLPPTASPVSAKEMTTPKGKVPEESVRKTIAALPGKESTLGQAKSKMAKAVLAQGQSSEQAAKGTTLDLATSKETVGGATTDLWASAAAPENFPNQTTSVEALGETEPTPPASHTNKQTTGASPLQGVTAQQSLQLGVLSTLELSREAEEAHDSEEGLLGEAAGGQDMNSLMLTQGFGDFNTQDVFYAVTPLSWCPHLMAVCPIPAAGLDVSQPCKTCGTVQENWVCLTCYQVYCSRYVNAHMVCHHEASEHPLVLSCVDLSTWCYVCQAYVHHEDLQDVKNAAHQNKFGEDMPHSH

[4] = Volume of distribution at steady state in Wistar Han rat at 1 mg/kg, po or 0.5 mg/kg, iv measured upto 24 hrs by LC-MS/MS analysis; type: ADME, organism-based; settings: in vivo
[5] = target: T2, Protein deacetylase HDAC6 (Homo sapiens, UniProt Q9UBN7); assay: Inhibition of HDAC6 (unknown origin) incubated for 30 mins
T2 sequence (Q9UBN7 whole entry): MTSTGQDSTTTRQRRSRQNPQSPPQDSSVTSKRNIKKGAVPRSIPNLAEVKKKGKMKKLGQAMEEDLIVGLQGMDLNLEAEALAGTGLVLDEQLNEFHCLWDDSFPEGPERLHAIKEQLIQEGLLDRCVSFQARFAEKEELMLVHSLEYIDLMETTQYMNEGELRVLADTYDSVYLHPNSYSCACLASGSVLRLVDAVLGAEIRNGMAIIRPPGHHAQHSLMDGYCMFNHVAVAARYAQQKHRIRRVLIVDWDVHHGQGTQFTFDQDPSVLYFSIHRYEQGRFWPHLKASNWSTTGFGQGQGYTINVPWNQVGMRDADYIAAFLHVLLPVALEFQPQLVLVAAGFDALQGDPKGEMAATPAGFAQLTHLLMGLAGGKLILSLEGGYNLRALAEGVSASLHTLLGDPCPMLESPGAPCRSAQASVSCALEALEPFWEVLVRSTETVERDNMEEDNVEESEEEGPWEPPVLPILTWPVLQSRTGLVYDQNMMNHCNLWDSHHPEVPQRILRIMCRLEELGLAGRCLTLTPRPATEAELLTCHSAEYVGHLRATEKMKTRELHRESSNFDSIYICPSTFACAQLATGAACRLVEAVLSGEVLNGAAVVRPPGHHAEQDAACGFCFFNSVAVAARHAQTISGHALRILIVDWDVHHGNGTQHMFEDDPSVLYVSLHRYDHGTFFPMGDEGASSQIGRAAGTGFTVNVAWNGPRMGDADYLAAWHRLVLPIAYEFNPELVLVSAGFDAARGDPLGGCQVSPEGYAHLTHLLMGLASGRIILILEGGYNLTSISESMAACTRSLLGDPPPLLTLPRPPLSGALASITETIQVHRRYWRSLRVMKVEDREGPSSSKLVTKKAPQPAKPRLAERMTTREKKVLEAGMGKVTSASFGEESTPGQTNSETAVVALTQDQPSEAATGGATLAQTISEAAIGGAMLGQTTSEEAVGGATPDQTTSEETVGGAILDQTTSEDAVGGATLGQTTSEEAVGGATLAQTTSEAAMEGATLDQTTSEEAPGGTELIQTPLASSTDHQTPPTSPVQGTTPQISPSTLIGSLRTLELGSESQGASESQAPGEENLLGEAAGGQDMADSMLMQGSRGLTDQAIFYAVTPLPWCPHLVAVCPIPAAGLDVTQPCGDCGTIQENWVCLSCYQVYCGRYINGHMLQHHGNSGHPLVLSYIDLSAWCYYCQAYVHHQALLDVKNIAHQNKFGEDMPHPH

[6] = Half life in C57/BI mouse at 1 mg/kg, po measured upto 24 hrs by LC-MS/MS analysis; type: ADME, organism-based; settings: in vivo
[7] = Half life in Wistar Han rat at 1 mg/kg, po measured upto 24 hrs by LC-MS/MS analysis; type: ADME, organism-based; settings: in vivo
[8] = Plasma protein binding in rat assessed as unbound fraction; type: ADME, cell-free
[9] = Metabolic stability in human hepatocytes assessed as intrinsic clearance at 1 uM measured per 10^6 cells incubated at 2 to 60 mins by LC-MS/MS analysis; type: ADME, cell-based, Hepatocyte; settings: time 2-60 min, read-out: CLH
[10] = Oral bioavailability in Wistar Han rat at 10 mg/kg measured upto 24 hrs by LC-MS/MS analysis; type: ADME, organism-based; settings: in vivo
[11] = AUC (0 to infinity) in C57/BI mouse at 10 mg/kg, po measured upto 24 hrs by LC-MS/MS analysis; type: ADME, organism-based; set-up: time < 24 hrs, dose 10 mg/kg, route po; settings: in vivo
[12] = Clearance in C57/BI mouse at 2 mg/kg, iv measured upto 24 hrs by LC-MS/MS analysis; type: ADME, organism-based; settings: in vivo
[13] = Volume of distribution at steady state in C57/BI mouse at 10 mg/kg, po or 2 mg/kg, iv measured upto 24 hrs by LC-MS/MS analysis; type: ADME, organism-based; settings: in vivo

CS(=O)(=O)NCC(Nc1ncc(-c2nnc(C(F)F)o2)cn1)c1ccc(OC(F)(F)F)cc1 (stereo not drawn)
half-life [1]: 7.2 h
half-life [2]: 11.8 h

FC(F)c1nnc(-c2ccc(Cn3nnc(-c4ccccn4)n3)nc2)o1
half-life [1]: < 13.7 h
IC50 [3]: 1000 nM
Vdss [4]: 1.8 L/kg
IC50 [5]: 27 nM
half-life [6]: 5.3 h
half-life [7]: 10 h
fraction unbound [8]: 0.38
half-life [2]: 7.68 h
hepatocyte CLint at 1 µM [9]: < 1 µL/min/1e6 cells

O=C(NO)c1cnc(NC2(c3ccccc3)CCC(F)(F)CC2)nc1
bioavailability [10]: 19%
IC50 [3]: 398 nM
AUC(0-inf) [11]: 0.4 µM·h
clearance [12]: 140 mL/min/kg
Vdss [4]: 2.2 L/kg
Vdss [13]: 1.6 L/kg
hepatocyte CLint at 1 µM [9]: 5.1 µL/min/1e6 cells

From ChEMBL document CHEMBL5370608, “Selective and Bioavailable HDAC6 2-(Difluoromethyl)-1,3,4-oxadiazole Substrate Inhibitors and Modeling of Their Bioactivation Mechanism” (J Med Chem, 2023)
